The text below walks through data of patent publication US20240228459A1 (Boundless Bio, Inc., priority 2022, published 2024).

SMILES strings stand for the structures. pIC50: −log10 of the molar value.

Test [1] has as its target PLK1 (Homo sapiens, UniProt P53350). The test can be described thus: PLK1 activity (known assay). Type of test: biochemical. The method, then: (§1) The Wee1 pCDK1 and PLK1 activities were determined using known assays.
Test [2] concerns the target Wee1 (Homo sapiens, UniProt P30291). Put plainly: Wee1 pCDK1 activity (known assay). Type of test: cell-based. On the procedure:
as §1

Chain of Wee1 (P30291 whole entry, species assumed): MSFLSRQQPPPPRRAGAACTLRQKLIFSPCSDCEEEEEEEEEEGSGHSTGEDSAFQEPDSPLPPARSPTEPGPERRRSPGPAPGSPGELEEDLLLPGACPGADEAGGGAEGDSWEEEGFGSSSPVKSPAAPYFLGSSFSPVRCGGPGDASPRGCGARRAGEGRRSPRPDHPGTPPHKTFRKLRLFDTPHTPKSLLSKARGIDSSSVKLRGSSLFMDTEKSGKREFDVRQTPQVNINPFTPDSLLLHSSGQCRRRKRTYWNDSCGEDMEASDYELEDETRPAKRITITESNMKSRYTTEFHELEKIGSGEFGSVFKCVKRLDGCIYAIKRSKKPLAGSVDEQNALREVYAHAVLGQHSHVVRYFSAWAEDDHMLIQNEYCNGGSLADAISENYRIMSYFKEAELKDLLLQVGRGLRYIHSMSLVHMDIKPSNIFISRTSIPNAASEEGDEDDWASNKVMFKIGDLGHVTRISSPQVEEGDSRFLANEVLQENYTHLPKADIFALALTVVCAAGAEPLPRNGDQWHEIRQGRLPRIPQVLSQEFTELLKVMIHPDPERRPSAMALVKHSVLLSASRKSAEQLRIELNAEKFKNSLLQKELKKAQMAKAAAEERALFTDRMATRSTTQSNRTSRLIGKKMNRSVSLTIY
Chain of PLK1 (P53350 whole entry, species assumed): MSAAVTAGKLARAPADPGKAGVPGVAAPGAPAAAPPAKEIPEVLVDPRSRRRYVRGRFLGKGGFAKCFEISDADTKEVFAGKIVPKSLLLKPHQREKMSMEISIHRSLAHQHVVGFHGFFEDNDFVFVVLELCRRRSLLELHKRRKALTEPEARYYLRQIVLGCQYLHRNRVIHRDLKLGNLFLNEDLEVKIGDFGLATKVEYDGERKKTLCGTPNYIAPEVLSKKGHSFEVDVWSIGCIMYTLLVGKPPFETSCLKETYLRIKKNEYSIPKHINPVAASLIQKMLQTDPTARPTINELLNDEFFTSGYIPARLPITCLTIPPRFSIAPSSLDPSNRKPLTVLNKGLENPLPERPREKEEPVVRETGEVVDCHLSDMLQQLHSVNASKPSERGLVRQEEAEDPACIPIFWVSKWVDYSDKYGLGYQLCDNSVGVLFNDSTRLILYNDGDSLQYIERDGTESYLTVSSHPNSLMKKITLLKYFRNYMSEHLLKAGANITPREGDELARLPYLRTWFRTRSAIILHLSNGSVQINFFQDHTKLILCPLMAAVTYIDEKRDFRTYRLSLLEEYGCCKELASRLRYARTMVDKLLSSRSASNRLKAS

A word on the pIC50: it is −log10 of the IC50, conventionally taken in molar units. For `CCC1(O)CCc2ccc(Nc3nc(Nc4ccc5c(c4)CCNC5(C)C)ncc3C#N)nc21` (centres unmarked) [Example 25, 2-[(1,1-dimethyl-3,4-dihydro-2H-isoquinolin-6-yl)amino]-4-[(7-ethyl-7-hydroxy-5,6-dihydrocyclopenta[b]pyridin-2-yl)amino]pyrimidine-5-carbonitrile], the values for the negative logarithm of the IC50 (pIC50) in test [1] and in test [2] were less than 6.00 and 6.00 to 6.30, respectively.

As to `CCC1(O)CCc2ccc(Nc3nc(Nc4ccc5c(c4)CCN(C)C5(C)C)ncc3C#N)nc21` (centres unmarked) [Example 26, 4-[(7-ethyl-7-hydroxy-5,6-dihydrocyclopenta[b]pyridin-2-yl)amino]-2-[(1,1,2-trimethyl-3,4-dihydroisoquinolin-6-yl)amino]pyrimidine-5-carbonitrile], the results for the pIC50 in test [1] and in test [2] were less than 6.00 and no less than 7.00, respectively.

With `CCC1(O)CCc2ccc(Nc3nc(Nc4ccc5c(c4)CN(C)CC5)ncc3C#N)nc21` (centres unmarked) [Example 29], the pIC50 in test [1] was 6.60 to 7.00; in test [2] it was 6.30 to 6.60.

Turning to `CCC1(O)CCc2ccc(Nc3nc(Nc4ccc5c(c4)CNCC5(C)C)ncc3C#N)nc21` (centres unmarked) [Example 30, 2-[(4,4-dimethyl-2,3-dihydro-1H-isoquinolin-7-yl)amino]-4-[(7-ethyl-7-hydroxy-5,6-dihydrocyclopenta[b]pyridin-2-yl)amino]pyrimidine-5-carbonitrile], the pIC50 in test [1] was less than 6.00; in test [2] it was 6.30 to 6.60.

Turning to `CCC1(O)CCc2ccc(Nc3nc(Nc4ccc(N5CCNC6(CC6)C5)cc4)ncc3C#N)nc21` (centres unmarked) [Example 31, 2-[4-(4,7-diazaspiro[2.5]octan-7-yl)anilino]-4-[(7-ethyl-7-hydroxy-5,6-dihydrocyclopenta[b]pyridin-2-yl)amino]pyrimidine-5-carbonitrile], the pIC50 is 6.60 to 7.00 in test [1] and less than 6.00 in test [2].

As for `CCC1(O)CCc2ccc(Nc3nc(Nc4ccc(N5CCN(C)C6(CC6)C5)cc4)ncc3C#N)nc21` (centres unmarked) [Example 33, 4-[(7-ethyl-7-hydroxy-5,6-dihydrocyclopenta[b]pyridin-2-yl)amino]-2-[4-(4-methyl-4,7-diazaspiro[2.5]octan-7-yl)anilino]pyrimidine-5-carbonitrile], the pIC50 was no less than 7.00 in test [1] and less than 6.00 in test [2].

As to `CCC1(O)CCc2ccc(Nc3nc(Nc4ccc(N5CC6CN(C)CC6C5)cc4)ncc3C#N)nc21` (centres unmarked) [Example 34, 4-[(7-ethyl-7-hydroxy-5,6-dihydrocyclopenta[b]pyridin-2-yl)amino]-2-[4-(2-methyl-1,3,3a,4,6,6a-hexahydropyrrolo[3,4-c]pyrrol-5-yl)anilino]pyrimidine-5-carbonitrile], the figures for the negative logarithm of the IC50 (pIC50) in test [1] and in test [2] were no less than 7.00 and 6.60 to 7.00, respectively.

As to `CCC1(O)CCc2ccc(Nc3nc(Nc4ccc(N5CC6CCC(C5)N6C)cc4)ncc3C#N)nc21` (centres unmarked) [Example 35, 4-[(7-ethyl-7-hydroxy-5,6-dihydrocyclopenta[b]pyridin-2-yl)amino]-2-[4-(8-methyl-3,8-diazabicyclo[3.2.1]octan-3-yl)anilino]pyrimidine-5-carbonitrile], the pIC50 was no less than 7.00 in test [1] and 6.60 to 7.00 in test [2].

For `CCC1(O)CCc2ccc(Nc3nc(Nc4ccc(N5C6CCC5CN(C)C6)cc4)ncc3C#N)nc21` (centres unmarked) [Example 36, 4-[(7-ethyl-7-hydroxy-5,6-dihydrocyclopenta[b]pyridin-2-yl)amino]-2-[4-(3-methyl-3,8-diazabicyclo[3.2.1]octan-8-yl)anilino]pyrimidine-5-carbonitrile], the pIC50 in test [1] is less than 6.00; in test [2], 6.30 to 6.60.

On to `CCC1(O)CCc2ccc(Nc3nc(Nc4ccc(N5CCC6(CCN(C)CC6)CC5)cc4)ncc3C#N)nc21` (centres unmarked) [Example 39, 4-[(7-ethyl-7-hydroxy-5,6-dihydrocyclopenta[b]pyridin-2-yl)amino]-2-[4-(9-methyl-3,9-diazaspiro[5.5]undecan-3-yl)anilino]pyrimidine-5-carbonitrile], for which the pIC50 in test [1] is no less than 7.00; in test [2], 6.60 to 7.00.

On to `CCC1(O)CCc2ccc(Nc3nc(Nc4cc(F)c(C5CCN(C)CC5)c(F)c4)ncc3C#N)nc21` (centres unmarked) [Example 40, 2-[3,5-difluoro-4-(1-methyl-4-piperidyl)anilino]-4-[(7-ethyl-7-hydroxy-5,6-dihydrocyclopenta[b]pyridin-2-yl)amino]pyrimidine-5-carbonitrile], for which the pIC50 in test [1] was less than 6.00; in test [2], 6.00 to 6.30.

For `CCC1(O)CCc2ccc(Nc3nc(Nc4cc(C)c(C5CCN(C)CC5)c(F)c4)ncc3C#N)nc21` (centres unmarked) [Example 41, 4-[(7-ethyl-7-hydroxy-5,6-dihydrocyclopenta[b]pyridin-2-yl)amino]-2-[3-fluoro-5-methyl-4-(1-methyl-4-piperidyl)anilino]pyrimidine-5-carbonitrile], the results for the pIC50 in test [1] and in test [2] were 6.30 to 6.60 and 6.60 to 7.00, respectively.

For the molecule `CCC1(O)CCc2ccc(Nc3nc(Nc4ccc(C5CCN(C)CC5)c(Cl)c4)ncc3C#N)nc21` (centres unmarked) [Example 42, 2-[3-chloro-4-(1-methyl-4-piperidyl)anilino]-4-[(7-ethyl-7-hydroxy-5,6-dihydrocyclopenta[b]pyridin-2-yl)amino]pyrimidine-5-carbonitrile], the pIC50 in test [1] was 6.60 to 7.00; in test [2] it was 6.30 to 6.60.

As to `CCC1(O)CCc2ccc(Nc3nc(Nc4ccc(C5CCN(C)CC5)c(F)c4)ncc3C#N)nc21` (centres unmarked) [Example 43, 4-[(7-ethyl-7-hydroxy-5,6-dihydrocyclopenta[b]pyridin-2-yl)amino]-2-[3-fluoro-4-(1-methyl-4-piperidyl)anilino]pyrimidine-5-carbonitrile], the pIC50 in test [1] and in test [2] was 6.30 to 6.60 throughout.

Regarding `CCC1(O)CCc2ccc(Nc3nc(Nc4ccc(C5CCN(C)CC5)c(COC)c4)ncc3C#N)nc21` (centres unmarked) [Example 44, 4-[(7-ethyl-7-hydroxy-5,6-dihydrocyclopenta[b]pyridin-2-yl)amino]-2-[3-(methoxymethyl)-4-(1-methyl-4-piperidyl)anilino]pyrimidine-5-carbonitrile], the negative-log IC50 (pIC50) in test [1] was 6.30 to 6.60; in test [2] it was 6.60 to 7.00.

For the molecule `CCC1(O)CCc2ccc(Nc3nc(Nc4ccc(C5CCN(C)CC5)c(OC)c4)ncc3C#N)nc21` (centres unmarked) [Example 45, 4-[(7-ethyl-7-hydroxy-5,6-dihydrocyclopenta[b]pyridin-2-yl)amino]-2-[3-methoxy-4-(1-methyl-4-piperidyl)anilino]pyrimidine-5-carbonitrile], the pIC50 in test [1] and in test [2] was no less than 7.00 in each case.

On to `CCC1(O)CCc2ccc(Nc3nc(Nc4ccc5c(c4)CCN(C)C5)ncc3C#N)nc21` (centres unmarked) [Example 46, 4-[(7-ethyl-7-hydroxy-5,6-dihydrocyclopenta[b]pyridin-2-yl)amino]-2-[(2-methyl-3,4-dihydro-1H-isoquinolin-6-yl)amino]pyrimidine-5-carbonitrile], for which the values for the pIC50 in test [1] and in test [2] were 6.30 to 6.60 and 6.60 to 7.00, respectively.

As for `CCC1(O)CCc2ccc(Nc3nc(Nc4cc(C)c5c(c4)CCN(C)C5)ncc3C#N)nc21` (centres unmarked) [Example 47, 2-[(2,8-dimethyl-3,4-dihydro-1H-isoquinolin-6-yl)amino]-4-[(7-ethyl-7-hydroxy-5,6-dihydrocyclopenta[b]pyridin-2-yl)amino]pyrimidine-5-carbonitrile], the pIC50 in test [1] is 6.30 to 6.60; in test [2], no less than 7.00.

Take `CCC1(O)CCc2ccc(Nc3nc(Nc4ccc5c(c4)CN(C)CC5(C)C)ncc3C#N)nc21` (centres unmarked) [Example 48, 4-[(7-ethyl-7-hydroxy-5,6-dihydrocyclopenta[b]pyridin-2-yl)amino]-2-[(2,4,4-trimethyl-1,3-dihydroisoquinolin-7-yl)amino]pyrimidine-5-carbonitrile]: the values for the pIC50 in test [1] and in test [2] were less than 6.00 and 6.30 to 6.60, respectively.

Turning to `CCC1(O)CCc2ccc(Nc3nc(Nc4cc(C)c5c(c4)CN(C)CC5)ncc3C#N)nc21` (centres unmarked) [Example 49, 2-[(2,5-dimethyl-3,4-dihydro-1H-isoquinolin-7-yl)amino]-4-[(7-ethyl-7-hydroxy-5,6-dihydrocyclopenta[b]pyridin-2-yl)amino]pyrimidine-5-carbonitrile], the pIC50 in test [1] and in test [2] was no less than 7.00 in each case.

With `CCC1(O)CCc2ccc(Nc3nc(Nc4ccc(COC)c(N5CCN(C)CC5)c4)ncc3C#N)nc21` (centres unmarked) [Example 50, 4-[(7-ethyl-7-hydroxy-5,6-dihydrocyclopenta[b]pyridin-2-yl)amino]-2-[4-(methoxymethyl)-3-(4-methylpiperazin-1-yl)anilino]pyrimidine-5-carbonitrile], the pIC50 was 6.60 to 7.00 in test [1] and 6.00 to 6.30 in test [2].

Turning to `CCC1(O)CCc2ccc(Nc3nc(Nc4ccc(N5CCN(C)CC5C)cc4)ncc3C#N)nc21` (centres unmarked) [Example 51, 2-[4-(2,4-dimethylpiperazin-1-yl)anilino]-4-[(7-ethyl-7-hydroxy-5,6-dihydrocyclopenta[b]pyridin-2-yl)amino]pyrimidine-5-carbonitrile], the pIC50 is 6.30 to 6.60 in test [1] and 6.60 to 7.00 in test [2].

Consider `CCC1(O)CCc2ccc(Nc3nc(Nc4ccc(N5CCN(C)C(C)C5)cc4)ncc3C#N)nc21` (centres unmarked) [Example 52, 2-[4-(3,4-dimethylpiperazin-1-yl)anilino]-4-[(7-ethyl-7-hydroxy-5,6-dihydrocyclopenta[b]pyridin-2-yl)amino]pyrimidine-5-carbonitrile], for which the pIC50 is no less than 7.00 in test [1] and 6.30 to 6.60 in test [2].

With `CCC1(O)CCc2ccc(Nc3nc(Nc4ccc(N5CCN(C(C)=O)C6(CC6)C5)cc4)ncc3C#N)nc21` (centres unmarked) [Example 54, 2-[4-(4-acetyl-4,7-diazaspiro[2.5]octan-7-yl)anilino]-4-[(7-ethyl-7-hydroxy-5,6-dihydrocyclopenta[b]pyridin-2-yl)amino]pyrimidine-5-carbonitrile], the pIC50 in test [1] was no less than 7.00; in test [2] it was 6.30 to 6.60.

With `CCC1(O)CCc2ccc(Nc3nc(Nc4ccc5c(c4)CNCC54CC4)ncc3C#N)nc21` (centres unmarked) [Example 55, 4-[(7-ethyl-7-hydroxy-5,6-dihydrocyclopenta[b]pyridin-2-yl)amino]-2-(spiro[2,3-dihydro-1H-isoquinoline-4,1′-cyclopropane]-7-ylamino)pyrimidine-5-carbonitrile], the pIC50 in test [1] is no less than 7.00; in test [2] it was less than 6.00.
